In one test the target is HDAC3 (Homo sapiens, UniProt O15379). Nature of the test: HDAC inhibition assay (HTRF), HDAC3.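 Also: HTRF detection with streptavidin-XL665 and a Eu cryptate-labelled antibody against unmodified H3K9, two independent runs with duplicate wells at each concentration.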
The target of the next test is T1, HDAC6 (Homo sapiens, UniProt Q9UBN7).
T1 construct: purchased BPS #50006
T1 sequence (Q9UBN7 1-1215): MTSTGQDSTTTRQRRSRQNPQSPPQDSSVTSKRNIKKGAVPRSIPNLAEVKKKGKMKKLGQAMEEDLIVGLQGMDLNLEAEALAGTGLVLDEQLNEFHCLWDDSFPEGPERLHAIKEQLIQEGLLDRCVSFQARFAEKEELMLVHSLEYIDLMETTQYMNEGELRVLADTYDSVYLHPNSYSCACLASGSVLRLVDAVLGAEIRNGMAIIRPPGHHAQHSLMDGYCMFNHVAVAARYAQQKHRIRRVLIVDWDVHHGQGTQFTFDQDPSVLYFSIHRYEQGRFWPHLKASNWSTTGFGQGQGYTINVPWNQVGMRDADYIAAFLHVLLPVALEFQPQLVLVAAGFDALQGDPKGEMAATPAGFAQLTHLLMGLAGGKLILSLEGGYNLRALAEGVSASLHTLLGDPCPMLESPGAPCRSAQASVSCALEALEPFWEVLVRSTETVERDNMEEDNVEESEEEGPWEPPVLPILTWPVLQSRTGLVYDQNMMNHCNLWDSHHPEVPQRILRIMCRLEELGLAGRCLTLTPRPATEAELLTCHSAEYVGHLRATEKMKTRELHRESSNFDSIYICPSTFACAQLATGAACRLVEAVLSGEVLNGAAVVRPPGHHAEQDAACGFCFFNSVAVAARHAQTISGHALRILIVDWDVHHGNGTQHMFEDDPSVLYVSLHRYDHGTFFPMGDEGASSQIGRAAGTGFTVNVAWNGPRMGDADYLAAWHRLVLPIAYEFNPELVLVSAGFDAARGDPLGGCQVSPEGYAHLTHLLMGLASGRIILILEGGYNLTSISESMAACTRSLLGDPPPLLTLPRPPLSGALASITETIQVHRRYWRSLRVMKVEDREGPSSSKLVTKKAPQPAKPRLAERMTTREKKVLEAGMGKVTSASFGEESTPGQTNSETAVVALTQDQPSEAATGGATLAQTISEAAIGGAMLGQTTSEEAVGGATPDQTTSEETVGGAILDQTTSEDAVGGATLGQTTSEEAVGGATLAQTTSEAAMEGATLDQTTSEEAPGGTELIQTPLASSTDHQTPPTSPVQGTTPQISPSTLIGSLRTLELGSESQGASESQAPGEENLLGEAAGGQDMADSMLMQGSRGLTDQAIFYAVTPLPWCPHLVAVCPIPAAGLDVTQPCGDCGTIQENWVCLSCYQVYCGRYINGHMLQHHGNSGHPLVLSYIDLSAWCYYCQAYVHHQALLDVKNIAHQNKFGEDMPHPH
Nature of the test: HDAC inhibition assay (HTRF), HDAC6. Type of test: biochemical. Conditions: for IC50: read-out: IC50 ± SD, HDAC6. (TR-FRET usually uses a lanthanide donor and a delayed reading to cut background.)

For another test, the target named is T2, HDAC1 (Homo sapiens, UniProt Q13547).
T2 construct: purchased BPS #50001
Nature of the test: HDAC inhibition assay (HTRF), HDAC1.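 As to all read-outs here: HTRF detection with streptavidin-XL665 plus Eu(K)-labelled anti-H3K9me0 antibody, two independent runs with duplicate wells per concentration.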 In kind it is biochemical. Conditions: for IC50: read-out: IC50 ± SD, HDAC1.

For test [1], the system named is RPMI-8226 (human myeloma cell line). In words: CCK8 cell viability assay, RPMI-8226. Type of test: cell-based. Particulars: 72 h, read-out: Proliferation inhibition IC50 ± SD, RPMI-8226. As for the experimental part:
(§1) The CCK8 (#AC11L054, Life ilab, Shanghai, China) method was used to detect the cells’ proliferation. Cells were seeded into a 96-well culture plate at an appropriate density. […] IC50 values were estimated using the four-parameter method. Each set of experiments was repeated independently three times with three replicate wells per concentration each time.

The subject of test [2] is HCT-116 (human colon cancer cell line). Nature of the test: CCK8 cell viability assay, HCT-116. Conditions: 72 h, read-out: Proliferation inhibition IC50 ± SD, HCT-116. In kind it is cell-based. Here is the method: as §1
On the technique in general: Tetrazolium dyes change colour on reduction, which living cells bring about.

The subject of test [3] is HL-60 (human leukemia cell line). In words: CCK8 cell viability assay, HL-60. In kind it is cell-based. Particulars: 72 h, read-out: Proliferation inhibition IC50 ± SD, HL-60. As for the experimental part: as §1
[4] abbreviates: read-out: (%) Inhibition of HDAC3.

Sequence of HDAC3 (O15379 whole entry): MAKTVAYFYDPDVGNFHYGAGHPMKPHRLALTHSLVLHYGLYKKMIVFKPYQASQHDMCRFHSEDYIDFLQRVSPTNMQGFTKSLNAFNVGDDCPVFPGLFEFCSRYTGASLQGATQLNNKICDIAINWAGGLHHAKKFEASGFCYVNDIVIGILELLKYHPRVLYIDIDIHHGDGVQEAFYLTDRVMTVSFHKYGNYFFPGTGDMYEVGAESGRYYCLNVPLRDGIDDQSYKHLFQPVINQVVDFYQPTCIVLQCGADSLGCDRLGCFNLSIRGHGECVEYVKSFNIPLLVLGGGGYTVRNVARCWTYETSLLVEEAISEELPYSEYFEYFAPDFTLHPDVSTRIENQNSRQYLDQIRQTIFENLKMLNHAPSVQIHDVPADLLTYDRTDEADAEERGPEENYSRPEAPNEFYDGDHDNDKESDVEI
Sequence of HDAC3 (Q9Y618 395-489 partner limits assumed): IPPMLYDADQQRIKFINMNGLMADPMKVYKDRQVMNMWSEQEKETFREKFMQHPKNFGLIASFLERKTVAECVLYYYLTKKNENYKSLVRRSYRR
T2 sequence (Q13547 whole entry): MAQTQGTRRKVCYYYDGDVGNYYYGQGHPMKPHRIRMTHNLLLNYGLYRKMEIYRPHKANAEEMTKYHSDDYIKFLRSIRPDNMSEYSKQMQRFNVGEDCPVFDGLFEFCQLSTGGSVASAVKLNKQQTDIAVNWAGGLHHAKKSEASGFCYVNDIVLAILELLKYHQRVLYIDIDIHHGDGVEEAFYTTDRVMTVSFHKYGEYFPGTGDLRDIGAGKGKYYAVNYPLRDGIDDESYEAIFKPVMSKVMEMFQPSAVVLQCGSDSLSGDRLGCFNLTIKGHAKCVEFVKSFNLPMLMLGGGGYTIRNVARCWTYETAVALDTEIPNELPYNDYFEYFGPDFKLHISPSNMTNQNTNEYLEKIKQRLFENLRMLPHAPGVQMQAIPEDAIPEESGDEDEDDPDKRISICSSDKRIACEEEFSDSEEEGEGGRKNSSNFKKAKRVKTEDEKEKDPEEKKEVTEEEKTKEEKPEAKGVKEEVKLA
Description for HDAC1: (§2) Then, SA-XL665 (#610SAXLG, Cisbio, Bedford, MA, USA) and anti-H3K9me0-Eu(K) (#61KB0KAD, Cisbio, USA) were added. […] The IC50 value of the compounds was calculated using GraphPad 7.0 software. Each set of experiments was independently repeated twice, with two replicate wells per concentration each time.
Description for HDAC3: as §2
Description for HDAC6: as §2

On to `CC(=O)c1cccn1CCCC(=O)NO` [Compound 3a, 4-(2-Acetyl-1H-pyrrol-1-yl)-N-hydroxybutanamide], for which the IC50 at HDAC3, at HDAC6 and on HDAC1 was greater than 10 µM throughout.
Take `CC(=O)c1cccn1CCCCC(=O)NO` [Compound 3b, 5-(2-Acetyl-1H-pyrrol-1-yl)-N-hydroxypentanamide]: the results for the IC50 against HDAC3, on HDAC6 and at HDAC1 were greater than 10 µM, greater than 10 µM and 0.426 ± 0.0138 µM, respectively.
Consider `CC(=O)c1cccn1CCCCCC(=O)NO` [Compound 3c, 6-(2-Acetyl-1H-pyrrol-1-yl)-N-hydroxyhexanamide], for which the IC50 at HDAC3 was 0.138 ± 0.0186 µM; at HDAC6 it was 0.0823 ± 0.0152 µM; on HDAC1 it was 0.118 ± 0.0308 µM.
Turning to `CC(=O)c1cccn1CCCCCCC(=O)NO` [Compound 3d, 7-(2-Acetyl-1H-pyrrol-1-yl)-N-hydroxyheptanamide], the IC50 is 0.04553 ± 0.00023 µM against HDAC3; 0.0142 ± 0.00124 µM on HDAC6; 0.0519 ± 0.00673 µM on HDAC1; greater than 30 µM in test [1]; greater than 30 µM in test [2]; greater than 30 µM in test [3].
Take `CC(=O)c1cccn1CCCCCCCC(=O)NO` [Compound 3e, 8-(2-Acetyl-1H-pyrrol-1-yl)-N-hydroxyoctanamide]: the IC50 at HDAC3 was found to be 0.085 ± 0.00121 µM; on HDAC6, 0.0155 ± 0.0029 µM; at HDAC1 it was 0.0824 ± 0.0312 µM.
Take `O=C(CCCCCCn1cccc1)NO` [Compound 5a, N-hydroxy-7-(1H-pyrrol-1-yl)heptanamide]: the IC50 against HDAC3 is 0.129 ± 0.0516 µM; on HDAC6 it was 0.0164 ± 0.00631 µM; at HDAC1, 0.101 ± 0.0257 µM; in test [1], greater than 30 µM; in test [2], 26.4 ± 4.1 µM; in test [3] it was 19.8 ± 1.88 µM.
Regarding `CCC(=O)c1cccn1CCCCCCC(=O)NO` [Compound 5b, N-hydroxy-7-(2-propionyl-1H-pyrrol-1-yl)heptanamide], the IC50 came to 0.0582 ± 0.00464 µM against HDAC3; 0.00767 ± 0.00106 µM at HDAC6; 0.0542 ± 0.00874 µM on HDAC1; 19.9 ± 7.71 µM in test [1]; 23 ± 7.03 µM in test [2]; 12.9 ± 0.75 µM in test [3].
Regarding `COC(=O)c1cccn1CCCCCCC(=O)NO` [Compound 5d, Methyl 1-(7-(hydroxyamino)-7-oxoheptyl)-1H-pyrrole-2-carboxylate], the IC50 against HDAC3 is 0.0495 ± 0.00292 µM; on HDAC6 it was 0.0112 ± 0.00476 µM; on HDAC1, 0.052 ± 0.0219 µM; in test [1] it was greater than 30 µM; in test [2] it was greater than 30 µM; in test [3], 21.8 ± 10.7 µM.
Take `O=C(CCCCCCn1cccc1C(=O)c1ccccc1)NO` [Compound 5e, 7-(2-Benzoyl-1H-pyrrol-1-yl)-N-hydroxyheptanamide]: the IC50 against HDAC3 came out at 0.00308 ± 0.00097 µM; at HDAC6 it was 0.00974 ± 0.00637 µM; at HDAC1, 0.0137 ± 0.00439 µM; in test [1], 17.9 ± 6.51 µM; in test [2] it was 19.8 ± 8.32 µM; in test [3], 7.5 ± 1.55 µM.
One may read the inhibition as the relative decrease from the control value, in per cent. Consider `O=C(CCCCCCn1ccc2ccccc21)NO` [Compound 5f, N-hydroxy-7-(1H-indol-1-yl)heptanamide], for which the inhibition at 1 µM on HDAC3 (setting [4]) was 94.4%; on HDAC6, 92.6%; against HDAC1, 96.8%. The IC50 in test [1], in test [2] and in test [3] was greater than 30 µM each time.
For `Cc1ccc2c(ccn2CCCCCCC(=O)NO)c1` [Compound 5g, N-hydroxy-7-(5-methyl-1H-indol-1-yl)heptanamide], the inhibition at 1 µM on HDAC3 (setting [4]) was 93.5%; at HDAC6, 91.5%; at HDAC1, 96.1%. In addition, the IC50 in test [1], in test [2] and in test [3] was greater than 30 µM in each case.
As for `O=C(CCCCCCn1ccc2ccc(F)cc21)NO` [Compound 5h, 7-(6-Fluoro-1H-indol-1-yl)-N-hydroxyheptanamide], the inhibition at 1 µM on HDAC3 (setting [4]) turned out to be 93.2%; against HDAC6, 92.4%; on HDAC1, 96.5%. Moreover, the IC50 in test [1], in test [2] and in test [3] was greater than 30 µM each time.
In the case of `O=C(CCCCCCn1ccc2cc(F)ccc21)NO` [Compound 5i, 7-(5-Fluoro-1H-indol-1-yl)-N-hydroxyheptanamide], the IC50 at HDAC3 was 0.00182 ± 0.00078 µM; on HDAC6, no more than 0.0017 µM; at HDAC1, 0.00448 ± 0.00243 µM; in test [1] it was greater than 30 µM; in test [2] it was greater than 30 µM; in test [3] it was greater than 30 µM.
`O=C(CCCCCCn1ccc2cc(Cl)ccc21)NO` [Compound 5j, 7-(5-Chloro-1H-indol-1-yl)-N-hydroxyheptanamide]: the inhibition at 1 µM at HDAC3 (setting [4]) was 93.3%; against HDAC6, 92.3%; against HDAC1 it was 96.2%. The IC50 in test [1], in test [2] and in test [3] was greater than 30 µM in each case.
For `O=C(CCCCCCn1ccc2cc(Br)ccc21)NO` [Compound 5k, 7-(5-Bromo-1H-indol-1-yl)-N-hydroxyheptanamide], the inhibition at 1 µM on HDAC3 (setting [4]) worked out at 92.2%; against HDAC6, 90.3%; on HDAC1, 96.2%. Also, the IC50 in test [1], in test [2] and in test [3] was greater than 30 µM each time.
On to `N#Cc1ccc2c(ccn2CCCCCCC(=O)NO)c1` [Compound 5l, 7-(5-Cyano-1H-indol-1-yl)-N-hydroxyheptanamide], for which the IC50 was 0.00118 ± 6e-05 µM on HDAC3; 0.00231 ± 0.00034 µM on HDAC6; 0.00242 ± 0.00036 µM on HDAC1; greater than 30 µM in test [1]; greater than 30 µM in test [2]; greater than 30 µM in test [3].
Take `CC(=O)c1cccn1CCc1ccc(C(=O)NO)cc1` [Compound 11, 4-(2-(2-Acetyl-1H-pyrrol-1-yl)ethyl)-N-hydroxybenzamide]: the figures for the inhibition at 10 µM at HDAC3 (setting [4]), at HDAC6 (at 10 μM) and against HDAC1 (at 10 μM) were 79.9%, 89.5% and 77.6%, respectively. Besides, the IC50 in test [1] was 11.7 ± 1.75 µM; in test [2] it was 17.1 ± 8.69 µM; in test [3] it was 28 ± 0.56 µM.
For `CC(=O)c1cccn1Cc1cn(CCc2ccc(C(=O)Nc3ccc(F)cc3N)cc2)nn1` [Compound 19b, 4-(2-(4-((2-Acetyl-1H-pyrrol-1-yl)methyl)-1H-1,2,3-triazol-1-yl)ethyl)-N-(2-amino-4-fluorophenyl)benzamide], the IC50 against HDAC3, on HDAC6 and on HDAC1 was greater than 10 µM throughout.
In the case of `CC(=O)c1cccn1Cc1cn(CCc2ccc(C(=O)Nc3ccc(Cl)cc3N)cc2)nn1` [Compound 19c, 4-(2-(4-((2-Acetyl-1H-pyrrol-1-yl)methyl)-1H-1,2,3-triazol-1-yl)ethyl)-N-(2-amino-4-chlorophenyl)benzamide], the IC50 at HDAC3, at HDAC6 and at HDAC1 was greater than 10 µM throughout.
As for `CC(=O)c1cccn1Cc1cn(CCc2ccc(C(=O)Nc3cc(F)c(F)cc3N)cc2)nn1` [Compound 19d, 4-(2-(4-((2-Acetyl-1H-pyrrol-1-yl)methyl)-1H-1,2,3-triazol-1-yl)ethyl)-N-(2-amino-4,5-difluorophenyl)benzamide], the IC50 at HDAC3, at HDAC6 and on HDAC1 was greater than 10 µM in each case.
For `COc1ccc(NC(=O)c2ccc(CCn3cc(Cn4cccc4C(C)=O)nn3)cc2)c(N)c1` [Compound 19e, 4-(2-(4-((2-Acetyl-1H-pyrrol-1-yl)methyl)-1H-1,2,3-triazol-1-yl)ethyl)-N-(2-amino-4-methoxyphenyl)benzamide], the IC50 against HDAC3, at HDAC6 and at HDAC1 was greater than 10 µM throughout.

These data come from paper PMC11477621, “Design, Synthesis, and Biological Evaluation of HDAC Inhibitors Containing Natural Product-Inspired N-Linked 2-Acetylpyrrole Cap” (Molecules, 2024).
